Laboratory results from ChEMBL document CHEMBL2016485, “Design and optimization of quinazoline derivatives as melanin concentrating hormone receptor 1 (MCHR1) antagonists: part 2” (Bioorg Med Chem Lett, 2012).
Values after ≈ are worked out from the molar mass of the structure shown.

Key:
[1] = AUC at steady state in diet-induced obese C57BL/6J mouse model plasma at 100 mg/kg, po qd dosed through CMC/Tween 80 suspension for 14 days measured at day 14; format: ADME, organism-based; design: dose 100 mg/kg, route oral
[2] = AUC at steady state in diet-induced obese C57BL/6J mouse model brain at 100 mg/kg, po qd dosed through CMC/Tween 80 suspension for 14 days measured at day 14; format: ADME, organism-based; design: dose 100 mg/kg, route oral
[3] = Cmax at steady state in diet-induced obese C57BL/6J mouse model plasma at 100 mg/kg, po qd dosed through CMC/Tween 80 suspension for 14 days measured at day 14; format: ADME, organism-based; design: dose 100 mg/kg, route oral
[4] = Cmax at steady state in diet-induced obese C57BL/6J mouse model brain at 100 mg/kg, po qd dosed through CMC/Tween 80 suspension for 14 days measured at day 14; format: ADME, organism-based; design: dose 100 mg/kg, route oral
[5] = Solubility in fasted state simulated intestinal fluid at pH 6.5 at 0.5 hrs; format: physicochemical
[6] = AUC (0 to 24 hrs) in mouse at 30 mg/kg, po; format: ADME, organism-based; design: time < 24 hr, dose 30 mg/kg, route oral; conditions: plasma
[7] = AUC (0 to 24 hrs) in rat at 30 mg/kg, po; format: ADME, organism-based; design: time < 24 hr, dose 30 mg/kg, route oral; conditions: plasma
[8] = Cmax in mouse at 30 mg/kg, po relative to initial plasma concentration; format: ADME, organism-based; design: dose 30 mg/kg, route oral
[9] = Cmax in rat at 30 mg/kg, po relative to initial plasma concentration; format: ADME, organism-based; design: dose 30 mg/kg, route oral
[10] = AUC at steady state in diet-induced obese C57BL/6J mouse model plasma at 30 mg/kg, po bid dosed through micronized suspension for 14 days measured at day 14; format: ADME, organism-based; design: dose 30 mg/kg, route oral
[11] = AUC at steady state in diet-induced obese C57BL/6J mouse model brain at 30 mg/kg, po bid dosed through micronized suspension for 14 days measured at day 14; format: ADME, organism-based; design: dose 30 mg/kg, route oral
[12] = Cmax at steady state in diet-induced obese C57BL/6J mouse model plasma at 30 mg/kg, po bid dosed through micronized suspension for 14 days measured at day 14; format: ADME, organism-based; design: dose 30 mg/kg, route oral
[13] = Cmax at steady state in diet-induced obese C57BL/6J mouse model brain at 30 mg/kg, po bid dosed through micronized suspension for 14 days measured at day 14; format: ADME, organism-based; design: dose 30 mg/kg, route oral
[14] = AUC (0 to 24 hrs) in dog at 5 mg/kg, po; format: ADME, organism-based, Canis lupus familiaris; design: time < 24 hr, dose 5 mg/kg, route oral; conditions: plasma
[15] = AUC (0 to 24 hrs) in dog at 6 mg/kg, iv; format: ADME, organism-based, Canis lupus familiaris; design: time < 24 hr, dose 6 mg/kg, route intravenous; conditions: plasma
[16] = Cmax in dog at 5 mg/kg, po relative to initial plasma concentration; format: ADME, organism-based, Canis lupus familiaris; design: dose 5 mg/kg, route oral
[17] = Cmax in dog at 6 mg/kg, iv relative to initial plasma concentration; format: ADME, organism-based, Canis lupus familiaris; design: dose 6 mg/kg, route intravenous
[18] = Cmax in beagle dog at 6 mg/kg, iv; format: ADME, organism-based, Canis lupus familiaris; design: dose 6 mg/kg, route intravenous; conditions: in vivo

Cc1nc(N2CCC(O)(C3CC3)CC2)nc2ccc(NC(=O)/C=C/c3ccc(Cl)cc3)cc12
AUC at 336 h [1]: 104 µM·h
AUC at 336 h [2]: 30.2 µM·h
Cmax [3]: 5.9 µM
Cmax [4]: 2.1 µM
solubility at 0.5 h [5]: 1.7 µM (≈ 0.787 µg/mL)
AUC(0-t) at 24 h [6]: 33.4 µM·h
AUC(0-t) at 24 h [7]: 26.6 µM·h
Cmax [8]: 2.1 µM
Cmax [9]: 2.4 µM

Cc1nc(N2CCC(N3CCOCC3=O)CC2)nc2ccc(NC(=O)/C=C/c3ccc(OC(F)(F)F)cc3)cc12
AUC at 336 h [10]: 312 µM·h
AUC at 336 h [11]: 104 µM·h
Cmax [12]: 16.5 µM
Cmax [13]: 6.3 µM

Cc1nc(N2CCC(N3CCCC3=O)CC2)nc2ccc(NC(=O)/C=C/c3ccc(OC(F)(F)F)cc3)cc12
AUC at 336 h [10]: 385 µM·h
AUC at 336 h [11]: 95.1 µM·h
Cmax [12]: 17.7 µM
Cmax [13]: 5.6 µM

Cc1nc(N2CCC(N3CCOC3=O)CC2)nc2ccc(NC(=O)/C=C/c3ccc(OC(F)(F)F)cc3)cc12
AUC at 336 h [10]: 284 µM·h
AUC at 336 h [11]: 67.6 µM·h
Cmax [12]: 12.7 µM
Cmax [13]: 3.7 µM

CS(=O)(=O)O.Cc1nc(N2CCC(O)(C3CC3)CC2)nc2ccc(NC(=O)/C=C/c3ccc(Cl)cc3)cc12
solubility at 0.5 h [5]: 11.2 µM
AUC(0-t) at 24 h [7]: 79.6 µM·h
AUC(0-t) at 24 h [14]: 37.7 µM·h
AUC(0-t) at 24 h [15]: 43.5 µM·h
Cmax [9]: 7.8 µM
Cmax [16]: 2.5 µM
Cmax [17]: 9.9 µM
Cmax [18]: 6.4 µM
